Test systems include A549 NSCLC; HL-60(TB) leukemia; HS 578T breast; KM12 colon; LOX IMVI melanoma; MCF7 breast; MDA-MB-231 breast; MOLT-4 leukemia; SF-539 CNS; UACC-62 melanoma.
Holding throughout (test): growth of human tumour cells (NCI), 48 h

The structures appear in SMILES notation.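 Interpolation was linear, between the two tested concentrations surrounding the appropriate level; five concentrations were tested over 48 hours in 96-well plates. Here, GI50 denotes the concentration required for 50% inhibition of growth. TGI: concentration producing complete growth inhibition.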

GI50 and TGI data for 11 compounds are collected here from PubChem BioAssay (NCI).

On to `CC1(C)CC(=O)C2=C(C1)OC(N)=C(c1nc(-c3ccccc3)cs1)C2c1ccc(Br)cc1` (stereo not drawn), for which the GI50 is 53.1 µg/mL in the test with A549 NSCLC; 69.2 µg/mL in the test on HL-60(TB) leukemia; 38.5 µg/mL in the test with HS 578T breast; 87.6 µg/mL in the test on KM12 colon; 124 µg/mL with LOX IMVI melanoma; 18.2 µg/mL in the test with MCF7 breast. In addition, the GI50 with MDA-MB-231 breast was 59.1 µg/mL; in the test with MOLT-4 leukemia it was 53.5 µg/mL; with SF-539 CNS, 94.8 µg/mL; in the test on UACC-62 melanoma, 30.5 µg/mL. Moreover, the TGI in the test with A549 NSCLC was greater than 150 µg/mL; in the test with HL-60(TB) leukemia, greater than 150 µg/mL; with HS 578T breast, greater than 150 µg/mL; in the test on KM12 colon, greater than 150 µg/mL; with LOX IMVI melanoma, greater than 150 µg/mL; in the test on MCF7 breast, 101 µg/mL. Further, the TGI with MDA-MB-231 breast, in the test with MOLT-4 leukemia, in the test with SF-539 CNS and with UACC-62 melanoma was greater than 150 µg/mL in each case.
Regarding `C[C@]12CC[C@@H]3c4cc(OC(F)F)c(OS(N)(=O)=O)cc4CC[C@H]3[C@@H]1CC[C@@H]2O`, the GI50 in the test with A549 NSCLC is 1750 nM; in the test with HL-60(TB) leukemia, 338 nM; with HS 578T breast it was 366 nM; in the test with KM12 colon, 422 nM; in the test with LOX IMVI melanoma, 428 nM; with MCF7 breast it was 390 nM. Further, the GI50 in the test on MDA-MB-231 breast was 1620 nM; in the test on MOLT-4 leukemia it was 641 nM; with SF-539 CNS, 333 nM; in the test on UACC-62 melanoma, 299 nM. Besides, the TGI was greater than 88200 nM with A549 NSCLC; 2490 nM in the test on HL-60(TB) leukemia; 30200 nM with HS 578T breast; 16600 nM in the test with KM12 colon; 15300 nM in the test on LOX IMVI melanoma; 20800 nM in the test with MCF7 breast. Further, the TGI in the test on MDA-MB-231 breast is 15500 nM; with MOLT-4 leukemia, greater than 64400 nM; with SF-539 CNS, 4580 nM; in the test on UACC-62 melanoma, 16700 nM.
As for `O=C1c2sccc2-c2cccc3cccc1c23` (tested in a mixture with another compound), the TGI in the test with A549 NSCLC was 16800 nM; with HL-60(TB) leukemia, 46100 nM; in the test with HS 578T breast it was 6720 nM; with KM12 colon, 28600 nM; in the test with LOX IMVI melanoma it was 18200 nM; with MCF7 breast, greater than 100000 nM. The TGI with MDA-MB-231 breast worked out at 54300 nM; in the test with MOLT-4 leukemia, 5200 nM; in the test with SF-539 CNS it was 32200 nM; in the test on UACC-62 melanoma, 22600 nM.
Regarding `CSc1nc2sc3c(c2c(=O)n1-c1ccc(C(C)C)cc1)CCC(=O)C3`, the GI50 in the test with A549 NSCLC was 3770 nM; in the test on HL-60(TB) leukemia, 2720 nM; with HS 578T breast, 2960 nM; in the test with KM12 colon it was 1900 nM; in the test on LOX IMVI melanoma it was 1770 nM; with MCF7 breast, 3140 nM. In addition, the GI50 in the test with MDA-MB-231 breast is 2470 nM; with MOLT-4 leukemia, 2640 nM; in the test with SF-539 CNS, 2050 nM; with UACC-62 melanoma it was 1810 nM. Moreover, the TGI came to 20700 nM with A549 NSCLC; 7570 nM with HL-60(TB) leukemia; 9640 nM in the test on HS 578T breast; 3950 nM in the test with KM12 colon; 3270 nM with LOX IMVI melanoma; 10600 nM with MCF7 breast. Also, the TGI with MDA-MB-231 breast came out at 6300 nM; with MOLT-4 leukemia, 6710 nM; in the test on SF-539 CNS, 4100 nM; in the test on UACC-62 melanoma, 3490 nM.
Regarding `O=C(CC1(O)C(=O)N(Cc2ccccc2)c2ccccc21)c1ccc(C(=O)NCC2CCC3(CC2)OOC2(CCCCC2)OO3)cc1` (stereo not drawn), the GI50 was 201 nM with A549 NSCLC; 539 nM with HL-60(TB) leukemia; 2760 nM in the test on HS 578T breast; 988 nM in the test on KM12 colon; 154 nM in the test with LOX IMVI melanoma; 2430 nM in the test with MCF7 breast. Also, the GI50 is 1150 nM in the test on MDA-MB-231 breast, 1890 nM in the test on MOLT-4 leukemia, 399 nM in the test on SF-539 CNS and 2200 nM with UACC-62 melanoma. Also, the TGI with A549 NSCLC was determined as 458 nM; in the test on HL-60(TB) leukemia, 2090 nM; in the test with HS 578T breast, 7810 nM; in the test with KM12 colon it was 2580 nM; in the test on LOX IMVI melanoma, 310 nM; with MCF7 breast, 10500 nM. The TGI worked out at 2950 nM in the test with MDA-MB-231 breast, 4610 nM in the test on MOLT-4 leukemia, 1040 nM in the test on SF-539 CNS and 5440 nM with UACC-62 melanoma.
For `Cn1cc(C2=C(c3cccc(OC[C@@H](O)CO)c3)C(=O)NC2=O)c2ccccc21`, the GI50 in the test on A549 NSCLC was greater than 25000 nM; with HL-60(TB) leukemia, greater than 25000 nM; in the test with HS 578T breast it was 1390 nM; with KM12 colon, 11000 nM; in the test on LOX IMVI melanoma, 14800 nM; in the test on MCF7 breast, 2070 nM. Further, the GI50 with MDA-MB-231 breast was greater than 25000 nM; with MOLT-4 leukemia, 16100 nM; in the test on SF-539 CNS it was greater than 19400 nM; in the test with UACC-62 melanoma, greater than 25000 nM. The TGI with A549 NSCLC, in the test on HL-60(TB) leukemia, with HS 578T breast, in the test on KM12 colon, in the test on LOX IMVI melanoma and in the test with MCF7 breast was greater than 25000 nM in each case. Moreover, the TGI with MDA-MB-231 breast, with MOLT-4 leukemia, in the test with SF-539 CNS and in the test on UACC-62 melanoma was greater than 25000 nM each time.
Turning to `N#CC1=C(/N=C/c2ccccc2)Oc2c(ccc3ccccc23)C1c1ccccc1` (stereo not drawn), the GI50 is 950 nM in the test with A549 NSCLC; 295 nM with HL-60(TB) leukemia; 377 nM in the test with HS 578T breast; 460 nM in the test with KM12 colon; 559 nM with LOX IMVI melanoma; 421 nM in the test on MCF7 breast. Moreover, the GI50 with MDA-MB-231 breast was 1310 nM; in the test with MOLT-4 leukemia, 935 nM; with SF-539 CNS it was 335 nM; in the test with UACC-62 melanoma, 653 nM. In addition, the TGI was greater than 100000 nM in the test with A549 NSCLC; 991 nM in the test on HL-60(TB) leukemia; greater than 100000 nM with HS 578T breast; greater than 100000 nM with KM12 colon; greater than 100000 nM in the test with LOX IMVI melanoma; greater than 100000 nM with MCF7 breast. In addition, the TGI was 20500 nM with MDA-MB-231 breast, greater than 100000 nM in the test on MOLT-4 leukemia, 2060 nM in the test with SF-539 CNS and greater than 100000 nM in the test with UACC-62 melanoma.
As to `O=[N+]([O-])c1ccc(N2CCOCC2)c2c1no[n+]2[O-]`, the GI50 in the test with A549 NSCLC is 1900 nM; with HL-60(TB) leukemia, 632 nM; in the test on HS 578T breast it was 1150 nM; in the test on KM12 colon, 1140 nM; with LOX IMVI melanoma it was 675 nM; in the test with MCF7 breast it was 543 nM. Further, the GI50 in the test with MDA-MB-231 breast is 2700 nM; in the test on MOLT-4 leukemia it was 850 nM; in the test with SF-539 CNS, 1070 nM; with UACC-62 melanoma, 1210 nM. The TGI in the test on A549 NSCLC amounted to 6280 nM; with HL-60(TB) leukemia, 2520 nM; in the test with HS 578T breast it was 4170 nM; with KM12 colon, 2480 nM; with LOX IMVI melanoma, 2130 nM; in the test with MCF7 breast it was 2960 nM. The TGI turned out to be 15600 nM in the test on MDA-MB-231 breast, 3430 nM in the test on MOLT-4 leukemia, 2270 nM in the test with SF-539 CNS and 3870 nM in the test on UACC-62 melanoma.
Regarding `C#CCNC(=O)[C@H](CC)[C@H]1CC[C@H](C)[C@H]([C@@H](C)[C@H](O)[C@H](C)C(=O)[C@H](CC)C2O[C@]3(C=CC(=O)[C@]4(CC[C@@](C)([C@H]5CC[C@](O)(CC)[C@H](C)O5)O4)O3)[C@H](C)C[C@@H]2C)O1` (stereo partly drawn), the GI50 in the test on A549 NSCLC was 2610 nM; in the test on HL-60(TB) leukemia it was 2280 nM; in the test on HS 578T breast, 2060 nM; in the test on LOX IMVI melanoma, 2060 nM; with MCF7 breast, 2670 nM; in the test on MDA-MB-231 breast, 1920 nM. Moreover, the GI50 was 2440 nM in the test with MOLT-4 leukemia, 1750 nM with SF-539 CNS and 1680 nM in the test on UACC-62 melanoma. The TGI in the test on A549 NSCLC was found to be 11200 nM; with HL-60(TB) leukemia, 5450 nM; in the test on HS 578T breast, 6710 nM; with LOX IMVI melanoma, 4830 nM; in the test on MCF7 breast, 12200 nM; in the test on MDA-MB-231 breast, 5140 nM. Also, the figures for the TGI in the test with MOLT-4 leukemia, with SF-539 CNS and in the test on UACC-62 melanoma were 8760 nM, 3360 nM and 4280 nM, respectively.
For the compound `CCc1cccc(C)c1NC(=O)c1sc2nc3c(cc2c1N)C(=O)CCC3`, the GI50 with A549 NSCLC was 652 nM; in the test with HL-60(TB) leukemia, 327 nM; in the test on HS 578T breast, 2570 nM; in the test on KM12 colon, 455 nM; in the test on LOX IMVI melanoma, 742 nM; in the test with MCF7 breast it was 396 nM. The GI50 in the test with MDA-MB-231 breast was 1420 nM; in the test on MOLT-4 leukemia, 2620 nM; with UACC-62 melanoma, 556 nM. In addition, the TGI is greater than 100000 nM in the test on A549 NSCLC; greater than 100000 nM in the test on HS 578T breast; greater than 100000 nM with KM12 colon; greater than 100000 nM in the test on LOX IMVI melanoma; greater than 91400 nM in the test on MCF7 breast; greater than 100000 nM in the test on MDA-MB-231 breast. Besides, the values for the TGI in the test with MOLT-4 leukemia and in the test with UACC-62 melanoma were greater than 69600 nM and greater than 100000 nM, respectively.
Take `O=C(CCCCCCN1CC(=O)N2[C@@H](c3ccc(Cl)c(Cl)c3)c3[nH]c4ccccc4c3C[C@H]2C1=O)NO`: the GI50 with A549 NSCLC was 4990 nM; with HL-60(TB) leukemia it was 1110 nM; with HS 578T breast, 3520 nM; in the test on KM12 colon, 3800 nM; with MCF7 breast, 1870 nM; in the test on MDA-MB-231 breast, 3470 nM. The GI50 was 1120 nM in the test with MOLT-4 leukemia, 3760 nM in the test on SF-539 CNS and 1660 nM with UACC-62 melanoma. The TGI in the test with A549 NSCLC was found to be 13600 nM; with HL-60(TB) leukemia, 4320 nM; in the test on HS 578T breast, 15600 nM; in the test on KM12 colon it was 9290 nM; in the test on MCF7 breast, 15000 nM; in the test with MDA-MB-231 breast, 9310 nM. For the same compound, the TGI in the test on MOLT-4 leukemia was 17300 nM; in the test on SF-539 CNS, 9270 nM; with UACC-62 melanoma, 7070 nM.
